Assay results reported in patent US20250375473A1, “Pharmaceutical composition for treating cancer comprising an ionic compound having metal ion binding thereto” (METAFINES.CO.LTD., priority 2018, published 2025).
In brackets after ≈: the same amount, converted by molar mass. Like-named read-outs stand apart in the source and are kept apart here.

Assays:
[1] = test system: colorectal cancer cell line (DLD-1); test: MTT assay, 72 h, colorectal cancer cell line; assay type: cell-based; conditions: for IC50: Homo sapiens
Description: (§1) The calcium salts of Examples 1 to 3 were added to each well by concentration (20 mg/ ? , mg/ ? , 0.8 mg/ ? , 0.16 mg/ ? , 0.032 mg/ ? , 0.0064 mg/ ? , 0.00128 mg/ ? , 0.000256 mg/ ? ). […] The supernatant was removed using a centrifuge, DMSO 200 ? was added to each well to dissolve the MTT stained precipitate, and OD540 value was measured at 540 nm with an ELISA reader.

[2] = test system: breast cancer cell line (MDA-MB-231); test: MTT assay, 72 h, breast cancer cell line; assay type: cell-based; conditions: for IC50: Homo sapiens, MDA-MB-231, 72 h; for IC50 of Breast cancer cell line: MDA-MB-231, 72 h, MTT
Description: as §1

[3] = test system: brain cancer cell line (U87MG); test: MTT assay, 72 h, brain cancer cell line; assay type: cell-based; conditions: for IC50: Homo sapiens, U-87 MG
Description: as §1

PDH enzyme = test: Time-dependent PDH enzyme activity in cancer cells; assay type: cell-based; conditions: DLD-1 and HT-29 cancer cells; FIG. 29
[4] = test system: lung cancer cell line (A-549); test: MTT assay, 48 h, A549
Description: (§5) 7 cell lines were aliquoted to each well of a 96-well plate at 5×10^3 cells, and cultured for 24 hours. […] The drug-treated cells were cultured in an incubator (37° C., 5% CO2) for 48 hours, and 5 mg/ ? MTT reagent 10 ? was added to each well and cultured for additional 4 hours. Then, culture medium was removed and DMSO 100 ? was treated to dissolve the MTT stained precipitate, and absorbance was measured at 540 nm with a microplate reader.

[5] = test system: colorectal cancer cell line (HT-29); test: MTT assay, 48 h, HT-29
Description: as §5

[6] = test system: liver cancer cell line (HepG2); test: MTT assay, 48 h, HepG2
Description: as §5

[7] = test system: ovarian cancer cell line (A2780); test: MTT assay, 48 h, A2780
Description: as §5

[8] = test system: pancreatic cancer cell line (PANC-1); test: MTT assay, 48 h, PANC-1
Description: as §5

[9] = test system: colorectal cancer cell line (HCT-116); test: MTT assay, 48 h, HCT-116; conditions: for IC50: Homo sapiens, HCT-116, 48 h
Description: as §5

[10] = test system: stomach cancer cell line (SNU-638); test: MTT assay, 48 h, SNU-638
Description: as §5

[11] = test system: human colorectal cancer cell lines (HCT-116 and HT-29); test: Change in ascorbic acid level in cancer cells; assay type: cell-based; conditions: 1 mM; 24 h; lysate; vs untreated control
Description: After culture, the cultured cancer cells were pulverized with a homogenizer and centrifuged, and the concentration of ascorbic acid contained in the lysate was measured using an ascorbic acid assay kit (Biovision, San Francisco, CA).

[12] = test system: poly (ADP-ribose) polymerase 1 (PARP-1); test: Western blot, PARP-1 expression in HCT-116; assay type: cell-based, human; conditions: 24 h
Description: The cultured cancer cells were pulverized with a homogenizer and centrifuged, and the expression levels of poly (ADP-ribose) polymerase 1 (PARP-1), β-catenin, VEGF and β-actin proteins contained in the lysate were measured using Western blot.

HCT-116 cell = test: IC50 of each drug alone, 48 h, HCT-116; assay type: cell-based, human
Description: (§2) Then, various concentration of Example or chemical anticancer drugs (Fluorouracil (5-FU), SN-38, Paclitaxel (PTX)) were treated thereto alone.

HT-29 cell = test: IC50 of each drug alone, 48 h, HT-29; assay type: cell-based, human
Description: as §2

DLD-1 cell = test: IC50 of each drug alone, 48 h, DLD-1; assay type: cell-based
Description: as §2

DLD-1 = test: Hetero salts vs homo salts, cell viability and cytotoxicity, DLD-1; assay type: cell-based; conditions: for viability at 10000 µM: DLD-1, read-out: cell viability, DLD-1 (10 mM)
Description: (§3) Hetero salts prepared according to the examples (ASCA101, ASCA201) and homo salts were applied to colorectal cancer cell lines, and their effects on cell viability and cytotoxicity were evaluated.
(§4) Herein, “Na-ASC” refers to sodium ascorbate, “Na-DCA” refers to sodium dichloroacetate, “Ca (ASC) 2” refers to calcium ascorbate, “Ca (DCA) 2” refers to calcium dichloroacetate, and “Ca (LA) 2” refers to calcium lactate.

SW480 = test: Hetero salts vs homo salts, cell viability and cytotoxicity, SW480; assay type: cell-based; conditions: for viability at 5000 µM: SW480, read-out: cell viability, SW480 (5 mM)
Description: as §3, §4

[13] = Homo sapiens, A549, 48 h, read-out: IC50 mM of A549 Lung cancer
[14] = Homo sapiens, A549, 48 h, read-out: IC50 of A549 Lung cancer (mg/ml)
[15] = Homo sapiens, HT-29, 48 h, read-out: IC50 mM of HT-29 Colorectal cancer cell line
[16] = Homo sapiens, HT-29, 48 h, read-out: IC50 of HT-29 Colorectal cancer cell line (mg/ml)
[17] = Homo sapiens, HepG2, 48 h, read-out: IC50 mM of HepG2 Liver cancer
[18] = Homo sapiens, HepG2, 48 h, read-out: IC50 of HepG2 Liver cancer (mg/ml)
[19] = Homo sapiens, A2780, 48 h, read-out: IC50 mM of A2780 Ovarian cancer
[20] = Homo sapiens, A2780, 48 h, read-out: IC50 of A2780 Ovarian cancer (mg/ml)
[21] = Homo sapiens, PANC-1, 48 h, read-out: IC50 mM of PANC-1 Pancreatic cancer
[22] = Homo sapiens, PANC-1, 48 h, read-out: IC50 of PANC-1 Pancreatic cancer (mg/ml)
[23] = read-out: IC50 mM of HCT-116 Colorectal cancer cell line
[24] = read-out: IC50 of HCT-116 Colorectal cancer cell line (mg/ml)
[25] = Homo sapiens, SNU-638, 48 h, read-out: IC50 mM of SNU-638 Stomach cancer
[26] = Homo sapiens, SNU-638, 48 h, read-out: IC50 of SNU-638 Stomach cancer (mg/ml)
[27] = read-out: IC50 value, HCT-116 cell
[28] = Homo sapiens, HCT-116, read-out: IC50 value, HCT-116 cell
[29] = Homo sapiens, DLD-1, read-out: cytotoxicity, DLD-1
[30] = Homo sapiens, SW480, read-out: cytotoxicity, SW-480

Which results are given for O=C(O)C(Cl)Cl [Dichloroacetic acid, dichloroacetic acid, reference compound]?
IC50 ([1]; DLD-1, 72 h, read-out: IC50 of Colorectal cancer cell line (mg/ml)): 1.21 mg/mL (≈ 9.38 mM); IC50 ([2]; read-out: IC50 of Breast cancer cell line (mg/ml)): 0.43 mg/mL (≈ 3.33 mM); IC50 ([3]; read-out: IC50 of Brain cancer cell line (mg/ml)): 3.71 mg/mL (≈ 28.8 mM); time-dependent PDH activity (PDH enzyme): peaked at 6 hours post-treatment and subsequently declined; IC50 [4, 13]: > 5 mM; IC50 [4, 14]: > 1.7 mg/mL; IC50 [5, 15]: > 5 mM; IC50 [5, 16]: > 1.7 mg/mL; IC50 [6, 17]: > 5 mM; IC50 [6, 18]: > 1.7 mg/mL; IC50 [7, 19]: > 5 mM; IC50 [7, 20]: > 1.7 mg/mL; IC50 [8, 21]: > 5 mM; IC50 [8, 22]: > 1.7 mg/mL; IC50 [9, 23]: > 5 mM; IC50 [9, 24]: > 1.7 mg/mL; IC50 [10, 25]: > 5 mM; IC50 [10, 26]: > 1.7 mg/mL

What does the source list for CC(O)C(=O)[O-].O=C1O[C@H]([C@@H](O)CO)C([O-])=C1O.[Ca+2] [Example 2, calcium salts of ascorbic acid and lactate]?
ascorbic acid concentration in cancer cells [11]: increased; concentration at which expression level of full length PARP-1 was decreased the most [12]: 0.34 mg/mL; IC50 of Colorectal cancer cell line ([1]; DLD-1, 72 h, MTT): 70 µg/mL; IC50 of Breast cancer cell line [2]: 50 µg/mL; IC50 of Brain cancer cell line ([3]; U87MG, MTT): 600 µg/mL; IC50 (HCT-116 cell; [27]): 430 µM; IC50 (HT-29 cell): 1800 µM; IC50 (DLD-1 cell): 340 µM; IC50 (DLD-1): 8600 µM; IC50 (SW480): 2600 µM; IC50 of A549 Lung cancer (mg/ml) ([4]; 48 h, MTT, value in brackets): (1.06) mg/ml; IC50 ([4]; read-out: IC50 mM of A549 Lung cancer, 48 h, MTT): 3.1 mM; IC50 of HT-29 Colorectal cancer cell line (mg/ml) ([5]; 48 h, MTT, value in brackets): (0.23) mg/ml; IC50 ([5]; read-out: IC50 mM of HT-29 Colorectal cancer cell line, 48 h, MTT): 0.66 mM; IC50 of HepG2 Liver cancer (mg/ml) ([6]; 48 h, MTT, value in brackets): (0.79) mg/ml; IC50 ([6]; read-out: IC50 mM of HepG2 Liver cancer, 48 h, MTT): 2.3 mM; IC50 of A2780 Ovarian cancer (mg/ml) ([7]; 48 h, MTT, value in brackets): (0.05) mg/ml; IC50 ([7]; read-out: IC50 mM of A2780 Ovarian cancer, 48 h, MTT): 0.14 mM; IC50 of PANC-1 Pancreatic cancer (mg/ml) ([8]; 48 h, MTT, value in brackets): (0.14) mg/ml; IC50 ([8]; read-out: IC50 mM of PANC-1 Pancreatic cancer, 48 h, MTT): 0.4 mM; IC50 of HCT-116 Colorectal cancer cell line (mg/ml) ([9]; 48 h, MTT, value in brackets): (0.11) mg/ml; IC50 of SNU-638 Stomach cancer (mg/ml) ([10]; 48 h, MTT, value in brackets): (0.49) mg/ml; IC50 ([10]; read-out: IC50 mM of SNU-638 Stomach cancer, 48 h, MTT): 1.44 mM

Which results are given for CC(O)C(=O)[O-].O=C([O-])C(Cl)Cl.[Ca+2] (stereo not shown) [Example 3, calcium salts of dichloroacetic acid and lactate]?
concentration at which expression level of full length PARP-1 was decreased the most [12]: 0.3 mg/mL; IC50 of Colorectal cancer cell line ([1]; DLD-1, 72 h, MTT): 860 µg/mL; IC50 of Breast cancer cell line [2]: 50 µg/mL; IC50 of Brain cancer cell line ([3]; U87MG, MTT): 800 µg/mL

For O=c1[nH]cc(F)c(=O)[nH]1 [Fluorouracil (5-FU), Fluorouracil], which IC50 (HCT-116 cell; [28]) is on record?
The IC50 was 6 µM.

Which results are given for O=C1O[C@H]([C@@H](O)CO)C([O-])=C1O.[Na+] [Na-ASC, sodium ascorbate]?
viability at 10000 µM (DLD-1; Homo sapiens): 65.3%; IC50 (DLD-1; [29]): 9600 µM; viability at 5000 µM (SW480; Homo sapiens): 40.8%; IC50 (SW480; [30]): 3000 µM

Which results are given for O=C([O-])C(Cl)Cl.[Na+] [Na-DCA, sodium dichloroacetate]?
viability at 10000 µM (DLD-1; Homo sapiens): 75.4%; IC50 (DLD-1; [29]): > 10000 µM; viability at 5000 µM (SW480; Homo sapiens): 99.8%; IC50 (SW480; [30]): > 5000 µM

With CC(=O)O[C@H]1C(=O)[C@@]2(C)[C@H]([C@H](OC(=O)c3ccccc3)[C@]3(O)C[C@H](OC(=O)[C@H](O)[C@@H](NC(=O)c4ccccc4)c4ccccc4)C(C)=C1C3(C)C)[C@]1(OC(C)=O)CO[C@@H]1C[C@@H]2O [Paclitaxel (PTX), Paclitaxel] as the compound, how does the IC50 (HCT-116 cell; [28]) read?
Its IC50 is 0.0078 µM.

How did the IC50 (HCT-116 cell; [27]) turn out when CCc1c2c(nc3ccc(O)cc13)-c1cc3c(c(=O)n1C2)COC(=O)[C@]3(O)CC [SN-38] was run?
The IC50 was 0.25 µM.

Which “ascorbic acid concentration in cancer cells” value [11] does the source give for O=C1O[C@H]([C@@H](O)CO)C(O)=C1O [ascorbic acid, reference compound] here?
The value was “lower level of increased ascorbic acid concentration”.

And the IC50 ([1]; DLD-1, 72 h, MTT, read-out: IC50 of Colorectal cancer cell line)?
Its IC50 is 0.09 mg/mL (≈ 0.511 mM).

What about the IC50 ([2]; read-out: IC50 of Breast cancer cell line) of the same compound?
The IC50 was 0.06 mg/mL (≈ 0.341 mM).

What about the IC50 ([3]; U87MG, MTT, read-out: IC50 of Brain cancer cell line) of the same compound?
The IC50 was 0.9 mg/mL (≈ 5.11 mM).

What about the IC50 [4, 13] of the same compound?
Its IC50 is > 5 mM.

And the IC50 [4, 14]?
Its IC50 is > 1.7 mg/mL.

And the IC50 [5, 15]?
The IC50 was 0.93 mM.

What about the IC50 [5, 16] of the same compound?
Its IC50 is 0.32 mg/mL.

What about the IC50 [6, 17] of the same compound?
The IC50 was 4.2 mM.

And the IC50 [6, 18]?
The IC50 was 1.44 mg/mL.

And the IC50 [7, 19]?
The IC50 was 0.15 mM.

What about the IC50 [7, 20] of the same compound?
The IC50 was 0.05 mg/mL.

And the IC50 [8, 21]?
Its IC50 is 0.37 mM.

What about the IC50 [8, 22] of the same compound?
The IC50 was 0.13 mg/mL.

What about the IC50 [9, 23] of the same compound?
The IC50 was 0.27 mM.

What about the IC50 [9, 24] of the same compound?
Its IC50 is 0.09 mg/mL.

And the IC50 [10, 25]?
The IC50 was 2.48 mM.

And the IC50 [10, 26]?
Its IC50 is 0.85 mg/mL.

Which results are given for calcium ascorbate [Ca(ASC)2]?
ascorbic acid concentration in cancer cells [11]: lower level of increased ascorbic acid concentration; cell viability, DLD-1 (10 mM) (DLD-1): 27.51; cell viability, SW480 (5 mM) (SW480): 33.19

Which “cell viability, DLD-1 (10 mM)” value (DLD-1) does the source give for calcium dichloroacetate [Ca(DCA)2] here?
The value was 62.53.

And the “cell viability, SW480 (5 mM)” value (SW480)?
The value was 105.98.
